Results from patent US8367690B2, “Aminopyridine derivatives having aurora a selective inhibitory action” (Vertex Pharmaceuticals Inc., priority 2009, dated 2013).
Structures can show the parent of a compound that is named as a salt.

Experiments:
[1] = target: T1, GST-tagged human Aurora B(AurB)/His-tagged human INCENP complex proteins (Homo sapiens, UniProt Q96GD4); test: Aurora B inhibitory activity, Method A (IMAP assay development kit); assay type: biochemical; settings: 40 μM ATP, 100 nM substrate, 25° C. for 45 minutes
T1 construct: GST; purchased Curia Biosciences, Inc
T1 sequence (Q96GD4 whole entry): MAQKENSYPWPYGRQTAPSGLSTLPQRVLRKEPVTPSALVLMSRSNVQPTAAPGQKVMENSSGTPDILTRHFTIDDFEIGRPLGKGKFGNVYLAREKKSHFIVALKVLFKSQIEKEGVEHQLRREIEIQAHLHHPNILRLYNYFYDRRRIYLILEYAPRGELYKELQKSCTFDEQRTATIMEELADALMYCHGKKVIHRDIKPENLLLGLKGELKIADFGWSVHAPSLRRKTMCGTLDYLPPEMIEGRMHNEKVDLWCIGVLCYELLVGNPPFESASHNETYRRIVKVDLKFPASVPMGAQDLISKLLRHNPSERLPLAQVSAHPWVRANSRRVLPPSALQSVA
T1 sequence (Q9NQS7 803-916 partner limits assumed): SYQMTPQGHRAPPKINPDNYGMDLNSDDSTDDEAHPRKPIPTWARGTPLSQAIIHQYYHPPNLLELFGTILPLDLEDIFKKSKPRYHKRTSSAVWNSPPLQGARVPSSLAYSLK
Method: An assay development kit for IMAP (registered trademark) (Aurora B), purchased from Curia Biosciences, Inc., was used for phosphorylation reaction, and the phosphorylation of a substrate was detected using the IMAP technology. The assay development kit used is comprised of an assay buffer, GST-tagged human Aurora B(AurB)/His-tagged human INCENP complex proteins (amino acid sequence: 803-916, AAU04398.1), and an ATP/substrate solution. Using the same, the phosphorylation reaction was conducted in accordance with a partially revised protocol attached to the kit, and then the phosphorylation of the substrate was detected using the IMAP technology.
For the phosphorylation reaction, 384 well plate was used, and the reaction volume was 10 μl/well. The composition of the reaction buffer (assay buffer) is comprised of 20 mM of HEPES buffer (pH 7.4), 0.01% Tween-20, and 2 mM of dithiothreitol (DTT). Thereto, AurB/INCENP complex protein, 100 nM of the substrate, and 40 μM of ATP, and 1 mM of magnesium salt were added, and then the reaction was conducted at 25° C. for 45 minutes. Thereafter, in order to terminate and detect the reaction, 30 μl of the IMAP (registered trademark) binding reagent (IMAP Progressive Binding Reagent, R7284) that had been diluted (1:400) in the lx IMAP binding buffer A (IMAP Progressive Binding Buffer A, 5× stock, R7282) was added to each well. The solution stood still for 60 minutes in the dark, and then fluorescence polarization was measured using a high-end microplate reader (excitation wavelength: 485 nm; emission wavelength: 520 nm).
(§1) The compound to be tested was added to the reaction system such that a dilution series of the compound in DMSO was prepared, and then 0.5 μL of this solution was added for the testing to each well. Each control well was provided by adding 0.5 μL of DMSO to the well in place of the DMSO solution containing the compound to be tested.
(§2) Using the above method (in the measurement of activity of Aurora B, Method A was used), the results for measurement of the activities of Aurora A and Aurora B were obtained as shown in Table 1. […] Similar results are obtained when Method B is used in the measurement of activity of Aurora B.

[2] = target: T2, His-tagged human Aurora A (Homo sapiens, UniProt O14965); test: Aurora A inhibitory activity (IMAP fluorescence polarization phosphorylation assay); assay type: biochemical; settings: 20 μM ATP, 100 nM peptide substrate, 30° C. for 120 minutes
T2 construct: His (N); made in house; host or cells: Escherichia coli BL21-CodonPlus(DE3)-RIL
T2 sequence (O14965 1-403): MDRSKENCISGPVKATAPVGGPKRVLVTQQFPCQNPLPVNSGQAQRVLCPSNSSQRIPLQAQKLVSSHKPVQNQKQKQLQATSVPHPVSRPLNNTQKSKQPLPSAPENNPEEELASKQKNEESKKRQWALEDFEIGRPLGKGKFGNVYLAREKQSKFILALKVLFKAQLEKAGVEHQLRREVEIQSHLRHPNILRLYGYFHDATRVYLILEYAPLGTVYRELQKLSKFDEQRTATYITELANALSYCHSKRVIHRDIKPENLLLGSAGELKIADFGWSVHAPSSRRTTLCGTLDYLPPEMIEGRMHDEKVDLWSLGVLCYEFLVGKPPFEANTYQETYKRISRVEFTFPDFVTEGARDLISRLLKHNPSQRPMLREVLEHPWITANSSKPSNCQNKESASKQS
Excerpt: cDNA of N-terminal His-tagged human Aurora A was integrated into an expression vector, which was then highly expressed in Escherichia coli BL21-CodonPlus(DE3)-RIL cells. The Escherichia coli was harvested and lysed, and then the His-tagged human Aurora A protein was applied onto a nickel chelate column and eluted from the column with imidazole. The active fractions were desalted with a desalting column to give a purified enzyme.
For measurement of the activity of Aurora A, the substrate used was a synthetic peptide (5-FAM (5-carboxyfluorescein)-γ-aminobutyric acid-Ala-Leu-Arg-Arg-Ala-Ser-Leu-Gly-NH2) (SEQ.ID.NO.:1), which was purchased from Toray Research Center, Inc.
For the phosphorylation reaction, the method by Upstate, Inc. [Kinase Profiler™ Assay Protocols] was referred to, and phosphorylation of the substrate was detected using IMAP® technology (Molecular Devices, Co. Ltd.) (Gaudet E W. et. al, J. Biomol. Screen, 8, 164-175(2003)). Concretely, the phosphorylation reaction and the detection were carried out as follows:
The phosphorylation reaction was conducted using 384 well plate, and the reaction volume was 10 μl/well. The reaction buffer is comprised of 50 mM Tris-chloride buffer (pH 7.4), 15 mM magnesium acetate, and 0.2 mM ethylenediamine-N,N,N′,N′-tetraacetic acid (EDTA). Thereto, the purified Aurora A protein, 100 nM of the peptide substrate, and 20 μM of adenosine 5′-triphosphate (ATP) were added, and then the reaction was carried out at 30° C. for 120 minutes.
Thereafter, in order to terminate and detect the reaction, 30 μl of the IMAP (registered trademark) binding reagent (IMAP Progressive Binding Reagent, R7284) that had been diluted (1:400) in the lx IMAP binding buffer A (IMAP Progressive Binding Buffer A, 5× stock, R7282) was added to each well. The solution stood still for 60 minutes in the dark, and then fluorescence polarization was measured using a high-end microplate reader (excitation wavelength: 485 nm; emission wavelength: 520 nm).
as §1, with “in dimethylsulfoxide (DMSO)” for “in DMSO”
as §2

Row | Compound | IC50 [1] [nM] | IC50 [2] [nM]
1 | Cc1cc(Nc2cc[nH]n2)nc(N2C[C@@H](NC(=O)OC(C)(C)C)C[C@@H](C(=O)O)C2)n1 (relative stereo) [Example 8, cis-5-[(tert-butoxycarbonyl)amino]-1-[4-methyl-6-(1H-pyrazol-5-ylamino)pyrimidin-2-yl]piperidine-3-carboxylic acid] | 7390 | 9.1
2 | Cc1cc(Nc2cc(C3CC3)[nH]n2)nc(N2C[C@@H](CC(=O)O)C[C@@H](C3CCCCC3)C2)n1 (stereo in doubt) [Example 24, [(3R*,5S*)-5-cyclohexyl-1-{4-[(3-cyclopropyl-1H-pyrazol-5-yl)amino]-6-methylpyrimidin-2-yl}piperidin-3-yl]acetic acid] | 350 | < 0.3
3 | Cc1cc(Nc2cc(C3CC3)[nH]n2)nc(N2C[C@H](C(=O)O)C[C@H](C3CCCCC3)C2)n1 (stereo in doubt) [Example 21, (3R*,5R*)-5-cyclohexyl-1-{4-[(3-cyclopropyl-1H-pyrazol-5-yl)amino]-6-methylpyrimidin-2-yl}piperidine-3-carboxylic acid trifluoroacetate] | 275 | 0.81
4 | Cc1cc(Nc2cc(C3CC3)[nH]n2)nc(N2C[C@H](CC(=O)O)C[C@H](C3CCCCC3)C2)n1 (stereo in doubt) [Example 23, [(3S*,5R*)-5-cyclohexyl-1-{4-[(3-cyclopropyl-1H-pyrazol-5-yl)amino]-6-methylpyrimidin-2-yl}piperidin-3-yl]acetic acid] | 2680 | 4
5 | Cc1cc(Nc2cc(C3CC3)[nH]n2)nc(N2C[C@@H](C(=O)O)C[C@@H](C3CCCCC3)C2)n1 (stereo in doubt) [Example 20, (3S*,5S*)-5-cyclohexyl-1-{4-[(3-cyclopropyl-1H-pyrazol-5-yl)amino]-6-methylpyrimidin-2-yl}piperidine-3-carboxylic acid trifluoroacetate] | 1150 | 2.4
6 | Cc1cc(Nc2cc[nH]n2)nc(N2C[C@H](NC(=O)OC(C)(C)C)C[C@@H](C(=O)O)C2)n1 (relative stereo) [Example 6, trans-5-[(tert-butoxycarbonyl)amino]-1-[4-methyl-6-(1H-pyrazol-5-ylamino)pyrimidin-2-yl]piperidine-3-carboxylic acid] | > 10000 | 55
7 | Cc1cc(Nc2cc[nH]n2)nc(N2C[C@H](C(=O)O)C[C@H](C3CCCCC3)C2)n1 (relative stereo) [Example 13, cis-5-cyclohexyl-1-[4-methyl-6-(1H-pyrazol-5-ylamino)pyrimidin-2-yl]piperidine-3-carboxylic acid trifluoroacetate] | 6620 | 1.1
8 | Cc1cc(Nc2cc[nH]n2)nc(N2C[C@H](C(=O)O)C[C@H](c3ccccc3)C2)n1 (relative stereo) [Example 10, cis-1-[4-methyl-6-(1H-pyrazol-5-ylamino)pyrimidin-2-yl]-5-phenylpiperidine-3-carboxylic acid trifluoroacetate] | 7910 | 7.8
